Test results as given in patent US20130224223A1, “Compositions and Methods for Treating Neurological Disorders” (GEORGIA REGENTS UNIVERSITY, priority 2007, published 2013).

B1: BDNF: BDNF, a gift from Regeneron; used as a control (protein, UniProt P23560 19-247, looked up)
Neurotrophic factor BDNF …: APMKEANIRGQGGLAYPGVRTHGTLESVNGPKAGSRGLTSLADTFEHVIEELLDEDQKVRPNEENNKDADLYTSRVMLSSQVPLEPPLLFLLEEYKNYLDAANMSMRVRRHSDPARRGELSVCDSISEWVTAADKKTAVDMSGGTVTVLEKVPVSKGQLKQYFYETKCNPMGYTKEGCRGIDKRHWNSQCRTTQSYVRALTMDSKKRIGWRFIRIDTSCVCTLTIKRGR

Legend:
[1] = system: PV-Cre;ErbB4−/− and PV-Cre;ErbB4+/+ mice; experiment: pre-pulse inhibition (PPI) test; format: in vivo; settings: 3 mg/kg
From the text: FIG. 16A is a bar graph showing the baseline startle response (startle amplitude) for PV-Cre;ErbB4+/+ (white bar, n=7) and PV-Cre;ErbB4−/− (hatched bar, n=6) mice under no stimulus, 70 dB (−) and startle stimulus, 120 dB (+), respectively; P>0.05). FIG. 16B is bar graph showing pre-pulse inhibition (%) for PV-Cre;ErbB4+/+ (white bar, n=7) and PV-Cre;ErbB4−/− (hatched bar, n=6) mice at three different levels of pre-pulse (75 dB, 80 dB, 85 dB), P=0.004. PPI=100−100%×(PPx/P120), in which PPx was the amplitude of the startle response after each pre-pulse and P120 was basal startle amplitude. FIG. 16C is a bar graph showing pre-pulse inhibition (%) for PV-Cre;ErbB4+/+ and PV-Cre;ErbB4−/− mice at three different levels of pre-pulse (75 dB, white bars) (80 dB, hatched bars), (85 dB, stippled bars), treated with vehicle or 3 mg/kg diazepam. Repeated measures, * P<0.05, # P=0.573. For vehicle treatment, n=10 and 12 for PV-Cre;ErbB4−/− mice and PV-Cre;ErbB4+/+ littermates, respectively; for diazepam treatment, n=9 and 11 for PV-Cre; ErbB4−/− and PV-Cre;ErbB4+/+, respectively. […]

[2] = system: cortical slices; experiment: [3H]GABA release from prefrontal cortical slices; format: cell-based, mice; settings: 20 mM KCl; for depolarization-evoked [3H]GABA release: substance alone, no other exogenous agent, AG1478/AG879 5 mM [sic]
Method: FIG. 2A is a line graph of [^3H]GABA release fraction/total fraction versus time (mins). Cortical slices were preloaded with [^3H]GABA for 30 min in the presence of b-alanine (1 mM), an inhibitor of [^3H]GABA uptake by glial cells, aminooxyacetic acid (0.1 mM), an inhibitor of GABA degradation, and nipecotic acid (1 mM), an inhibitor of the GABA transporter in neurons. Basal and depolarization (20 mM KCl)-evoked release of [^3H]GABA were monitored sequentially. Controls (open circles) and NRG1 (closed circles). FIG. 2B is a line graph of percent [^3H]GABA release versus NRG1 concentration (nM). Basal (open circles) K+ evoked (closed circles). […] FIG. 2D is a line graph of cumulative counts versus mIPSC amplitude (pA). Controls (open circles) and NRG1 (closed circles). FIG. 2E is a line graph of cumulative counts versus mIPSC interevent interval (ms). Controls (open circles) and NRG1 (closed circles). FIG. 2F is a bar graph of mIPSC (percent) in control and NRG1 treated pyramidal neurons in prefrontal cortical slices (n=12). Amplitude (clear) and Frequencies (hatched). FIG. 2G is a bar graph of percent eIPSC amplitude in prefrontal cortical slices treated with NRG1 versus control or washout. n=12, *p<0.01. Representative eIPSCs of control, NRG1-treated, or NRG1-treated/washed slices are shown on top. FIG. 2H is a line graph of percent eIPSC amplitude versus NRG1 (nM). n=6, *p<0.05, **p<0.01. FIG. 2I is a bar graph of K^+ evoked [^3H]GABA release (percent) (left axis, clear rectangles) and eIPSC amplitude (percent) (right axis, hatched rectangles) in prefrontal cortical slices treated with NRG1, denature NRG1, or BDNF. n=8 for [^3H]GABA release; for eIPSCs, n=6 for control, NRG1, and denatured NRG1, and n=4 for BDNF. *p<0.05, #p<0.05; **p<0.05, ##<0.01.
NRG1 may regulate GABAergic neurotransmission. To test this hypothesis, the effects of NRG1 on GABA release in cortical slices were determined by both biochemical and electrophysiological approaches. Basal [^3H]GABA release was low, at a rate of 3.75±0.35% (n=8) of total radioactivity per 10 min (FIG. 2A). Treatment of slices with 20 mM KCl, a condition known to depolarize neurons, increased [^3H]GABA release by 2.5-3.5 folds within 10 min (FIG. 2A). NRG1 had no effect on basal [^3H]GABA release; by contrast, it increased depolarization-evoked GABA release in a dose-dependent manner (FIG. 2B). […] Furthermore, the NRG regulation remained unchanged in the presence of antagonists of metabotropic glutamate receptors, cholinergic receptors, serotonin receptors, adrenergic receptors and/or dopamine receptors. As a control, BDNF decreased depolarization-evoked GABA release and eIPSCs in cortical slices, in agreement with earlier studies (Canas, et al., Brain Res, 1016:72-78 (2004); Frerking, et al., J Neurophysiol, 80:3383-3386 (1998)).

[3] = system: prefrontal cortical slices; experiment: eIPSC recording in prefrontal cortical slices; format: cell-based, mice; settings: for evoked IPSCs (eIPSCs): substance alone, no other exogenous agent, AG1478/AG879 5 mM [sic]
Method: Transverse prefrontal cortical slices (0.3 mm) were prepared from P28-P36 mice using a Vibroslice (Leica VT 10005) in the ice-cold solution, which contained 2.5 mM KCl, 1.25 mM NaH2PO4, 10 mM MgSO4, 0.5 mMCaCl2, 26 mM NaHCO3, 10 mM glucose, and 230 mM sucrose. Slices were allowed to recover for at least 2 hr in ACSF (1 hr at 34° C. followed by 1 hr at 22° C.) in a solution containing 126 mM NaCl, 2.5 mM KCl, 1.25 mM NaH2PO4, 2 mM MgSO4, 2 mM CaCl2, 26 mM NaHCO3, and 10 mM glucose. Slices were placed in the recording chamber and superfused (1.5 ml/min) with ACSF at 34° C. All solutions were saturated with 95% O2/5% CO2. Neurons were visualized with an IR-sensitive CCD camera with a 403 water-immersion lens (Zeiss, Axioskop2 Fsplus) and recorded using whole-cell voltage-clamp techniques (MultiClamp 7008 Amplifier, Digidata 1320A analog-to-digital converter) and pClamp 9.2 software (Axon Instruments). Glass pipettes were filled with the solution containing 125 mM Cs-gluconate, 10 mM CsCl, 1 mM MgCl2, 10 mM HEPES, 1 mM EGTA, 0.1 mM CaCl2, 10 mM sodium phosphocreatine, 4 mM Mg-ATP, 0.3 mM GTP, 0.2 mM leupeptin, and 5 mM lidocaine N-ethylchloride (QX314) (pH 7.2, with the osmolarity adjusted to 280 mOsm with sucrose). The resistance of pipettes was 2-3 MΩ For mIPSC recording, QX314 was omitted in the pipette filling solution, whereas […] was included in the superfusing solution. eIPSCs were generated with a two-concentric bipolar stimulating electrode ([…] pole separation; FHC, ME) positioned about […] from the neuron under recording. Single or paired pulses of 0.2 ms were delivered at 0.1 Hz and synchronized using a Mater-8 stimulator (A.M.P.I). The holding potential for both mIPSCs and eIPSCs was −65 mV. All experiments were done at 34° C. in the presence of 6-cyano-7-nitroquinoxaline-2,3-dione (CNQX, […]) and AP-5 ([…]) to block AMPA/NMDA receptors. Data were collected when series resistance fluctuated within 15% of initial values (8-15 MU), they were filtered at 2 kHz, and they were sampled at 10 kHz.

Molecule	PPI in PV-Cre;ErbB4−/− mice ([1]; acute administration, mutant mice)	PPI in control mice ([1]; after 30-min treatment, PV-Cre;ErbB4+/+ littermates)	depolarization-evoked [3H]GABA release [2]	NRG1-enhanced evoked GABA release ([2]; substance given with exogenous NRG1)	evoked IPSCs (eIPSCs) [3]	NRG1 potentiation of eIPSCs ([3]; substance given with exogenous NRG1 (5 nM))
CN1C(=O)CN=C(c2ccccc2)c2cc(Cl)ccc21 [diazepam]	significantly enhanced	no effect	–	–	–	–
CC(C)(C)c1cc(/C=C(\C#N)C(N)=S)cc(C(C)(C)C)c1O [AG879]	–	–	no detectable effect	no detectable effect	no detectable effect	no detectable effect
B1	–	–	decreased	–	decreased	–
